Source: ChEMBL document CHEMBL3507680, “University of Dundee, Gates Library screen for HepG2 cell viability”

Assay: Human HepG2 cell viability assay in 384 well format
Type: toxicity, cell-based
Set-up: dose 125 nL, time 70.5 hour; concentration not given beside the values
Conditions: HepG2 cells, read-out: Inhibition

With Cn1cnc(S(=O)(=O)N2CCSC3(CCCCC3)C2)c1 the cytotoxicity at 70.5 h was 4.34%.
O=C(c1c(O)cnc2ccccc12)N1CCN(CC(F)F)CC1 showed a cytotoxicity at 70.5 h of -3.97%.
CN(C)C(=O)N1CCN(C(=O)c2ccn3cncc3c2)CC1 gave a cytotoxicity at 70.5 h of 0.173%.
CCC(CC)S(=O)(=O)NC(=O)c1ccc2c(c1)ncn2C showed a cytotoxicity at 70.5 h of -0.423%.
In the case of COCCNC(=O)N1CC(Cc2ccccc2F)C1, the cytotoxicity at 70.5 h is reported as -4.03%.
COc1ccc(C)cc1C(C)NCc1cnnn1C (centres undefined) showed a cytotoxicity at 70.5 h of -1.22%.
With COc1ccc(C)cc1C(C)NCc1cccn1C (centres undefined) the cytotoxicity at 70.5 h was -0.611%.
With CC(NCc1ccsc1)c1ccc(OCc2nccn2C)cc1 (centres undefined) the cytotoxicity at 70.5 h was -3.28%.
CC(NCc1cnn(C)c1)c1ccc(OCc2nccn2C)cc1 (centres undefined) showed a cytotoxicity at 70.5 h of -2.06%.
For CCn1cc(CNC2CCN(c3cccc(Cl)c3)C2)cn1 (centres undefined), the cytotoxicity at 70.5 h was -3.2%.
In the case of Cc1cccc(CCC(=O)Nc2cccnc2N2CCC(O)CC2)c1, the cytotoxicity at 70.5 h is reported as 1%.
In the case of Cc1cnn(CCC(=O)Nc2cccnc2N2CCC(CO)CC2)c1, the cytotoxicity at 70.5 h is reported as -1.8%.
For Cc1ccc(C(=O)Nc2ccc(N3CCCC3)cn2)cc1C, the cytotoxicity at 70.5 h was 0.417%.
CCNC(=O)NC(=O)CN1CCOC(c2ccc(Br)cc2)C1 (centres undefined) showed a cytotoxicity at 70.5 h of -3.93%.
In the case of O=C(CCN1CCC(c2cc3ccccc3[nH]2)CC1)N1CCOCC1, the cytotoxicity at 70.5 h is reported as -1.25%.
With CN(CC(=O)NCC(C)(C)c1ccc2c(c1)OCO2)c1cnccn1 the cytotoxicity at 70.5 h was -12.3%.
COCC(=O)N(C)Cc1ccc(OCc2cccs2)cc1 gave a cytotoxicity at 70.5 h of -6.51%.
Compound Cn1cc(C(=O)N2CCO[C@@H]3CN(C4CCC4)C[C@@H]3C2)cn1 has a cytotoxicity at 70.5 h of -3.32%.
Work on CS(=O)(=O)NC1CCc2[nH]c(=O)ccc2C1 (centres undefined) yielded a cytotoxicity at 70.5 h of -4.24%.
Compound CO[C@H]1CC[C@H]2[C@H]1OCCN2C(=O)CC1=CCCCC1 has a cytotoxicity at 70.5 h of -2.24%.
CCO[C@@H]1CC[C@H]2[C@H]1OCCN2C(=O)CC1=CCCCC1 showed a cytotoxicity at 70.5 h of -2.71%.
For Cc1ncccc1NC(=O)[C@@H]1CCO[C@@H]2CCN(c3ccncn3)C[C@H]21, the cytotoxicity at 70.5 h was -6.04%.
In the case of CC(=O)N1CC[C@H]2OCC[C@@H](C(=O)Nc3cccnc3C)[C@H]2C1, the cytotoxicity at 70.5 h is reported as -3.55%.
Compound O=C(c1cccnc1)N1CCO[C@@H]2CNC[C@@H]21 has a cytotoxicity at 70.5 h of -4.67%.
CCOCc1nn(C)c2c1CN(CCO)CC2 gave a cytotoxicity at 70.5 h of -6.16%.
For CN1CCCN(C(=O)c2nc3c(o2)CN(S(C)(=O)=O)C3)CC1, the cytotoxicity at 70.5 h was -14.5%.
In the case of CC(C)NC(=O)N1CC[C@H]2N(C)CC[C@@]2(C(=O)Nc2cccnc2)CC1, the cytotoxicity at 70.5 h is reported as -10.8%.
Cc1nc(CN2CCC3(C2)CN(C(=O)c2ccc[nH]2)C3)cs1 showed a cytotoxicity at 70.5 h of -5.84%.
For O=C(NCC1CC1)c1cc2c(s1)CCN2c1ncccn1, the cytotoxicity at 70.5 h was -0.353%.
For O=C(NCCN1CCCC1)c1cc2c(s1)CCN2c1ncccn1, the cytotoxicity at 70.5 h was -5.02%.
CCOCC1CN(C(=O)c2cccs2)Cc2cnn(CC3CC3)c21 (centres undefined) gave a cytotoxicity at 70.5 h of -6.77%.
COCCN1CCN(S(C)(=O)=O)Cc2cccnc21 gave a cytotoxicity at 70.5 h of -5.85%.
In the case of O=c1ccc2c(n1CC1CC1)CCN(c1ncccn1)CC2, the cytotoxicity at 70.5 h is reported as -4.49%.
With CCS(=O)(=O)N1CCN(C)c2ncccc2C1 the cytotoxicity at 70.5 h was -7.16%.
CC(=O)N1CCO[C@@H]2CN(S(=O)(=O)c3ccc(C)cc3)CC[C@@H]2C1 gave a cytotoxicity at 70.5 h of 11.2%.
CCN(C(=O)c1nc2c(s1)CCCN2C(C)=O)C(C)C showed a cytotoxicity at 70.5 h of 2.41%.
For c1cc(-c2n[nH]cc2-c2ccnc(N3CCCCCC3)n2)ccn1, the cytotoxicity at 70.5 h was 0.607%.
Work on CC(C)[C@H](CO)Nc1nccc(-c2c[nH]nc2-c2ccncc2)n1 yielded a cytotoxicity at 70.5 h of -3.12%.
Cc1ncc(-c2ccnc(NCCc3ccc(F)cc3)n2)c(=O)[nH]1 gave a cytotoxicity at 70.5 h of -12.9%.
Compound CC(=O)N1CCC(n2nccc2-c2cnc(NCCO)nc2)CC1 has a cytotoxicity at 70.5 h of -9.44%.
CNc1nc2c(s1)C(=O)CN(C(=O)NCCc1ccccc1)C2 showed a cytotoxicity at 70.5 h of 17.6%.
Compound CC[C@@H](CO)Nc1nccc(-c2cnc3sc(C)cn3c2=O)n1 has a cytotoxicity at 70.5 h of 15.2%.
For CC(=O)Nc1nc2c(s1)C1(CCCC1)Nc1ccccc1S2, the cytotoxicity at 70.5 h was -3.55%.
Compound Cc1ncc(-c2ccnc(N3CC[C@H](O)C3)n2)c(-c2cccnc2)n1 has a cytotoxicity at 70.5 h of -6.52%.
Work on CC(C)CNc1nccc(-c2cnc3sc(Cl)cn3c2=O)n1 yielded a cytotoxicity at 70.5 h of -6.64%.
O=c1[nH]c(-c2ccncc2)ncc1-c1ccnc(N2CCOCC2)n1 gave a cytotoxicity at 70.5 h of -2.39%.
Compound C[C@@H](CO)Nc1nccc(-c2cnc3sc(Cl)cn3c2=O)n1 has a cytotoxicity at 70.5 h of -8.27%.
With CC(C)[C@H](NS(C)(=O)=O)C(=O)NCc1cc(-c2ccco2)n[nH]1 the cytotoxicity at 70.5 h was -13.8%.
In the case of O=C(C1CC(F)(F)C1)N1C[C@@H]2CN(CC3CC3)CCO[C@@H]2C1, the cytotoxicity at 70.5 h is reported as 26%.
For CC(=O)N1CCO[C@@H]2CN(S(=O)(=O)c3cccnc3)C[C@@H]2C1, the cytotoxicity at 70.5 h was 0.618%.
With CC(C)NC1CCc2[nH]c(=O)ccc2C1 (centres undefined) the cytotoxicity at 70.5 h was -3.78%.
For Cc1occc1C(=O)NCC1OCCc2cn(C)nc21 (centres undefined), the cytotoxicity at 70.5 h was -3.82%.
With O=C(O)[C@]12CCCN(C3CCOC3)C[C@H]1CN(c1ncccn1)C2 (some centres undefined) the cytotoxicity at 70.5 h was -2.93%.
Compound Cn1nc(COCC2CC2)c2c1CCN(Cc1cccs1)C2 has a cytotoxicity at 70.5 h of -4.53%.
O=C(c1ccccc1)N1CCCC2(CCN2Cc2cccc(F)c2)C1 (centres undefined) showed a cytotoxicity at 70.5 h of -9.02%.
Compound COc1cc(N2CCC3(CCN(Cc4nccs4)CC3)C2)ncn1 has a cytotoxicity at 70.5 h of 30.8%.
Compound COCCN1CCOCC12CCN(c1cnccn1)CC2 has a cytotoxicity at 70.5 h of -6.94%.
Work on CCN1CCOCC12CCN(c1cnccn1)CC2 yielded a cytotoxicity at 70.5 h of -7.58%.
Cc1noc(C)c1CN1CCOCC12CCN(c1cnccn1)CC2 gave a cytotoxicity at 70.5 h of -6.5%.
Compound Cc1noc(C)c1CN1CCOCC12CCN(c1nccs1)CC2 has a cytotoxicity at 70.5 h of -8.54%.
In the case of CS(=O)(=O)N1CCc2ccc(=O)n(CCN3CCCC3)c2CC1, the cytotoxicity at 70.5 h is reported as -6.85%.
For CN(C)CCn1c2c(ccc1=O)CC(NC(=O)NC1CCCC1)CC2 (centres undefined), the cytotoxicity at 70.5 h was -6.88%.
In the case of CN1CCN(C2COC3(CCN(c4ccc(C#N)cc4)CC3)C2)CC1 (centres undefined), the cytotoxicity at 70.5 h is reported as -6.07%.
Compound CN(C)CCn1c2c(ccc1=O)CC(NC(=O)c1ccsc1)CC2 (centres undefined) has a cytotoxicity at 70.5 h of 11.3%.
Compound CCN1CCn2c(-c3cccc(F)c3)cnc2C12CCN(C(C)=O)CC2 has a cytotoxicity at 70.5 h of 2.55%.
For c1ccc(OCC2C[C@@H]3[C@@H](C2)OCCN3Cc2ccoc2)nc1 (some centres undefined), the cytotoxicity at 70.5 h was -0.172%.
For COCCN1CCO[C@@H]2CN(S(=O)(=O)c3cccnc3)C[C@@H]2C1, the cytotoxicity at 70.5 h was 3.84%.
CC(C)N1CCC(N2CCC(C(=O)N(C)C)CC2)CC1 showed a cytotoxicity at 70.5 h of 1.65%.
Work on Cc1oncc1C(=O)N1CC[C@H]2[C@H](C[C@@H](CN3CCCC3)N2C)C1 yielded a cytotoxicity at 70.5 h of -2.32%.
Compound CNC(=O)[C@@H]1C[C@H]2CN(Cc3csc(C)n3)C[C@H]2N1C(C)C has a cytotoxicity at 70.5 h of -4.84%.
In the case of Cc1ncccc1NC(=O)[C@@H]1CCO[C@@H]2CCN(c3ccccc3)C[C@@H]21, the cytotoxicity at 70.5 h is reported as -3.01%.
CCN1CCC(N2CCC(C(=O)N(C)C)CC2)CC1 gave a cytotoxicity at 70.5 h of -5.59%.
In the case of Cc1noc(C)c1CN1C[C@H]2CN(Cc3cccc(F)c3)C[C@H]2C1, the cytotoxicity at 70.5 h is reported as -1.37%.
Compound COCCN1CCC2(CC1)CC(NCc1ccc(C)s1)c1ccccc12 (centres undefined) has a cytotoxicity at 70.5 h of 2.38%.
Compound Cc1noc(C)c1CN1CCO[C@H]2CN(Cc3cccc(F)c3)C[C@H]21 has a cytotoxicity at 70.5 h of -13.7%.
In the case of CN(C)C(=O)COCC1CN(Cc2ccco2)Cc2ncn(C)c21 (centres undefined), the cytotoxicity at 70.5 h is reported as -0.299%.
In the case of COCCN1Cc2nccn2CC(COCc2csc(C)n2)C1 (centres undefined), the cytotoxicity at 70.5 h is reported as -1.7%.
Compound CN(C)CCN1CCO[C@H]2CN(C(=O)c3ccsc3)C[C@H]21 has a cytotoxicity at 70.5 h of -6.87%.
CN(C)C1CCC2(CCN(Cc3cccnc3)CC2)c2ccccc21 (centres undefined) gave a cytotoxicity at 70.5 h of -3.39%.
